Reference: ChEMBL document CHEMBL4725437, “P450s under Restriction (PURE) Screen Using HepaRG and Primary Human Hepatocytes for Discovery of Novel HBV Antivirals” (ACS Med Chem Lett, 2020)
Calls of active or inactive are those of the source. No cut-off for these calls is given here.

Columns and labels:
[1] = molecular target: T1, Cytochrome P450 1A2 (Homo sapiens, UniProt P05177); assay: (§1) Inhibition of CYP1A2 in HBV-infected human HepaRG cells at 0.2 to 20 mM using luciferin-1A2 as substrate treated for 1 hr on day 5 post-infection followed by removal of media and supplemented with fresh media and further incubated for 3 days then followed by treatment for 1 hr on day 8 post-infection followed by removal of media and supplemented with fresh media and further incubated for 3 days and measured on day 11 post-infection by P450-Glo chemiluminescent assay; format: ADME, tissue-based; details: 20000 µM, dose 0.2-20 mM
T1 sequence (P05177 whole entry): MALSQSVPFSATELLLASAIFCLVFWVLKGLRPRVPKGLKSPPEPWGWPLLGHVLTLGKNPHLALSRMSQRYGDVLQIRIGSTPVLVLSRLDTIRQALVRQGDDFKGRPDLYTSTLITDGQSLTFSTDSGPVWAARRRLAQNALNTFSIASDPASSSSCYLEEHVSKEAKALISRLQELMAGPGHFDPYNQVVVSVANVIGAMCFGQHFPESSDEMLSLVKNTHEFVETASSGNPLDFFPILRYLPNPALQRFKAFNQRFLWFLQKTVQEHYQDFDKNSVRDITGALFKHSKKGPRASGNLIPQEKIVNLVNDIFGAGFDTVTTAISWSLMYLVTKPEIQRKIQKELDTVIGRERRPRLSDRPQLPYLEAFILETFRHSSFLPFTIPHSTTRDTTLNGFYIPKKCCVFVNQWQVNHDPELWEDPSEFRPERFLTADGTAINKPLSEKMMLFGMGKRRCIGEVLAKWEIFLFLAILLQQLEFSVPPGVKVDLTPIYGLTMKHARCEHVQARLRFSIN

[2] = system: Hepatocyte; assay: (§2) Cytotoxicity against human primary hepatocytes infected with HBV assessed as reduction in cell viability at 10 mM treated for 1 hr on day 5 post-infection followed by removal of media and supplemented with fresh media and further incubated for 3 days then followed by treatment for 1 hr on day 8 post-infection followed by removal of media and supplemented with fresh media and further incubated for 3 days in presence of 50 uM SKF-525A and measured on day 11 post-infection by Celltiter-Glo assay relative to control; format: cell-based
[3] = system: Hepatocyte; assay: as §2, with “25” for “50”, “assay” for “assay relative to control”; format: cell-based; details: 10000 µM
[4] = molecular target: T2, Cytochrome P450 3A4 (Homo sapiens, UniProt P08684); assay: as §1, with “CYP3A4” for “CYP1A2”, “luciferin-IPA” for “luciferin-1A2”; format: ADME, tissue-based; details: 20000 µM, dose 0.2-20 mM
T2 sequence (P08684 whole entry): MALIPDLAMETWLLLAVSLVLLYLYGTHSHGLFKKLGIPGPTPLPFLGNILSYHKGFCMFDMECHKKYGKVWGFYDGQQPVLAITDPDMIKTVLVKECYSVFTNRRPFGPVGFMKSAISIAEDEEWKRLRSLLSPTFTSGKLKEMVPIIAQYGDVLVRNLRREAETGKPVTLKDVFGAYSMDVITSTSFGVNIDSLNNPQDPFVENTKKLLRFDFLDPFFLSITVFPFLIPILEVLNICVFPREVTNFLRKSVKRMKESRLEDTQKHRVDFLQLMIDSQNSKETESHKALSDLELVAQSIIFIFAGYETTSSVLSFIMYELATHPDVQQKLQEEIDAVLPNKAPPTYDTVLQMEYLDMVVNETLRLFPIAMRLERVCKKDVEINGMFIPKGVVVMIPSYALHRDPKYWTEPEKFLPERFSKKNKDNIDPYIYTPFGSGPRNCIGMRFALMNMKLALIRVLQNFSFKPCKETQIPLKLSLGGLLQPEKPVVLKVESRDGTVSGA

[5] = molecular target: T3, CYP1A2 (Homo sapiens, UniProt P05177); assay: as §1, with “10” for “0.2 to 20”, “assay relative to control” for “assay”; format: ADME, tissue-based; details: probe luciferin-1A2
T3 sequence (P05177 whole entry): T1 sequence (P05177 whole entry)

[6] = system: Hepatitis B virus; assay: as §2, with “Antiviral activity” for “Cytotoxicity”, “against Hepatitis B virus infected in” for “against”, “hepatocytes” for “hepatocytes infected with HBV”, “HbsAg secretion level” for “cell viability”, “chemiluminescence immunostaining” for “Celltiter-Glo”; format: functional, organism-based; details: Primary hepatocyte
[7] = molecular target: T1, Cytochrome P450 1A2; assay: as §1, with “primary hepatocytes” for “HepaRG cells”; format: ADME, tissue-based; details: heparg, 20000 µM, dose 0.2-20 mM
[8] = system: Hepatitis B virus; assay: (§3) Antiviral activity against Hepatitis B virus infected in human HepaRG cells assessed as reduction in HbsAg secretion level at 10 mM treated for 1 hr on day 5 post-infection followed by removal of media and supplemented with fresh media and further incubated for 3 B37days then followed by treatment for 1 hr on day 8 post-infection followed by removal of media and supplemented with fresh media and further incubated for 3 days in presence of 50 uM SKF-525Aand measured on day 11 post-infection by chemiluminescence immunostaining assay; format: functional, organism-based
[9] = molecular target: T4, CYP3A4 (Homo sapiens, UniProt P08684); assay: (§4) Inhibition of CYP3A4 in HBV-infected human HepaRG cells at 10 mM using luciferin-IPA as substrate treated for 1 hr on day 5 post-infection followed by removal of media and supplemented with fresh media and further incubated for 3 days in presence of 50 uM SKF-525A by P450-Glo chemiluminescent assay relative to control; format: ADME, tissue-based; details: probe luciferin-IPA, with SKF-525A 50 uM
T4 sequence (P08684 whole entry): as above

[10] = molecular target: T5, Cytochrome P450 2C9 (Homo sapiens, UniProt P11712); assay: as §1, with “CYP2C9” for “CYP1A2”, “primary hepatocytes” for “HepaRG”, “luciferin-H” for “luciferin-1A2”; format: ADME, tissue-based, Primary hepatocyte; details: 20000 µM, dose 0.2-20 mM
T5 sequence (P11712 whole entry): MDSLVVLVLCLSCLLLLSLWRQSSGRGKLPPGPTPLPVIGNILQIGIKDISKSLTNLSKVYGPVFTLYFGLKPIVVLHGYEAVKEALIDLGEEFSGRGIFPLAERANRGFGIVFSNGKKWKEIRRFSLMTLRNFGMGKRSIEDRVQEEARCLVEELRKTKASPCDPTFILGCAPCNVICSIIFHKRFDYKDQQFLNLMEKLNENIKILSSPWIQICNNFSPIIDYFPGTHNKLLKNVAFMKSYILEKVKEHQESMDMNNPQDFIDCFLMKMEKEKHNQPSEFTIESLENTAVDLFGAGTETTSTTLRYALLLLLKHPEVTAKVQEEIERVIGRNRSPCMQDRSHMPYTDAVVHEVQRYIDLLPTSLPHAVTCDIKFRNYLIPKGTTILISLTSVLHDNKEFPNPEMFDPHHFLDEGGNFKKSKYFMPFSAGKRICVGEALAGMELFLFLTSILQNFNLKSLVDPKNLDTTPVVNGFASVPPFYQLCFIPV

[11] = molecular target: T4, CYP3A4; assay: (§5) Inhibition of CYP3A4 in HBV-infected human HepaRG cells at 10 mM using luciferin-IPA as substrate treated for 1 hr on day 5 post-infection followed by removal of media and supplemented with fresh media and further incubated for 3 days by P450-Glo chemiluminescent assay relative to control; format: ADME, tissue-based; details: probe luciferin-IPA
[12] = molecular target: T6, CYP2C9 (Homo sapiens, UniProt P11712); assay: as §4, with “CYP2C9” for “CYP3A4”, “luciferin-H” for “luciferin-IPA”; format: ADME, tissue-based; details: probe luciferin-H, with SKF-525A 50 uM
T6 sequence (P11712 whole entry): as above

[13] = molecular target: T4, CYP3A4; assay: as §4, with “days then followed by treatment for 1 hr on day 8 post-infection followed by removal of media and supplemented with fresh media and further incubated for 3 days” for “days”, “SKF-525A and measured on day 11 post-infection” for “SKF-525A”; format: ADME, tissue-based; details: probe luciferin-IPA, with SKF-525A 50 uM
[14] = molecular target: T2, Cytochrome P450 3A4; assay: as §1, with “CYP3A4” for “CYP1A2”, “primary hepatocytes” for “HepaRG cells”, “luciferin-IPA” for “luciferin-1A2”; format: ADME, tissue-based, Primary hepatocyte; details: 20000 µM, dose 0.2-20 mM
[15] = system: Hepatitis B virus; assay: as §3, with “primary hepatocytes” for “HepaRG cells”, “days” for “B37days”, “25” for “50”, “SKF-525A and” for “SKF-525Aand”; format: functional, Primary hepatocyte; design: scale not given: the % may be the effect or the level left
[16] = molecular target: T4, CYP3A4; assay: as §5, with “days then followed by treatment for 1 hr on day 8 post-infection followed by removal of media and supplemented with fresh media and further incubated for 3 days and measured on day 11 post-infection” for “days”; format: ADME, tissue-based; details: probe luciferin-IPA
[17] = molecular target: T6, CYP2C9; assay: Inhibition of CYP2C9 in HBV-infected human HepaRG cells at 10 mM using luciferin-H as substrate treated for 1 hr on day 5 post-infection followed by removal of media and supplemented with fresh media and further incubated for 3 days by P450-Glo chemiluminescent assay relative to control; format: ADME, tissue-based; details: probe luciferin-H
[18] = molecular target: T6, CYP2C9; assay: (§6) Inhibition of CYP2C9 in HBV-infected human HepaRG cells at 10 mM using luciferin-H as substrate treated for 1 hr on day 5 post-infection followed by removal of media and supplemented with fresh media and further incubated for 3 days then followed by treatment for 1 hr on day 8 post-infection followed by removal of media and supplemented with fresh media and further incubated for 3 days in presence of 50 uM SKF-525A and measured on day 11 post-infection by P450-Glo chemiluminescent assay relative to control; format: ADME, tissue-based; details: probe luciferin-H, with SKF-525A 50 uM
[19] = molecular target: T3, CYP1A2; assay: as §4, with “CYP1A2” for “CYP3A4”, “luciferin-1A2” for “luciferin-IPA”; format: ADME, tissue-based; details: probe luciferin-1A2, with SKF-525A 50 uM
[20] = system: HepaRG; assay: as §2, with “HepaRG cells” for “primary hepatocytes”, “assay” for “assay relative to control”; format: cell-based; details: 10000 µM
[21] = system: HepaRG; assay: as §2, with “HepaRG cells” for “primary hepatocytes”, “0.2 to 20” for “10”, “days” for “days in presence of 50 uM SKF-525A”, “assay” for “assay relative to control”; format: cell-based; details: 20000 µM, dose 0.2-20 mM
[22] = molecular target: T5, Cytochrome P450 2C9; assay: as §1, with “CYP2C9” for “CYP1A2”, “luciferin-H” for “luciferin-1A2”; format: ADME, tissue-based; details: 20000 µM, dose 0.2-20 mM
[23] = molecular target: T3, CYP1A2; assay: as §6, with “CYP1A2” for “CYP2C9”, “luciferin-1A2” for “luciferin-H”; format: ADME, tissue-based; details: probe luciferin-1A2, with SKF-525A 50 uM
[24] = molecular target: T6, CYP2C9; assay: as §6, with “days” for “days in presence of 50 uM SKF-525A”; format: ADME, tissue-based; details: probe luciferin-H
[25] = molecular target: T3, CYP1A2; assay: Inhibition of CYP1A2 in HBV-infected human HepaRG cells at 10 mM using luciferin-1A2 as substrate treated for 1 hr on day 5 post-infection followed by removal of media and supplemented with fresh media and further incubated for 3 days by P450-Glo chemiluminescent assay relative to control; format: ADME, tissue-based; details: probe luciferin-1A2

Nn1nnc2ccccc21
inhibition (INH) [1]: Active
Activity [2]: 10%
Activity [3]: Non-Toxic
inhibition (INH) [4]: Active
inhibition at 1 h, 10000 µM [5]: 91%
Activity [6]: inactive
inhibition (INH) [7]: Active
Activity [8]: inactive
inhibition at 1 h, 10000 µM [9]: 83.3%
inhibition (INH) [10]: Active
inhibition at 1 h, 10000 µM [11]: 9.6%
inhibition at 1 h, 10000 µM [12]: 36.9%
inhibition at 2 h, 10000 µM [13]: 90.3%
inhibition (INH) [14]: Active
Activity [15]: 20%
inhibition at 1 h, 50 µM [16]: 87.8%
inhibition at 1 h, 10000 µM [17]: -9.4%
inhibition at 1 h, 10000 µM [18]: 82.1%
inhibition at 1 h, 10000 µM [19]: 39.2%
Activity [20]: Non-Toxic
Activity [21]: Non-Toxic
inhibition (INH) [22]: Active
inhibition at 1 h, 10000 µM [23]: 88.8%
inhibition at 1 h, 10000 µM [24]: 67.5%
inhibition at 1 h, 10000 µM [25]: 37.1%
